The text below walks through data of patent US20240358624A1, “APPLICATION TYPE BODY-CORRECTING-FILM FORMING AGENT” (SHISEIDO COMPANY, LTD., priority 2021, published 2024).

Peptide text beside a SMILES is read from it.

This data set in a line: Permeability test with stationary Franz diffusion cell and human skin. The data set is classed as in vitro ADME. Here is the method:
The intramembrane concentrations of various water-soluble agents in the epidermis and dermis after 24 hours were measured using the following conditions and methods with a stationary Franz diffusion cell and human skin.
• Cell type: Stationary Franz diffusion cell (manufactured by Biocom Systems, Inc.) • Receptor well volume: 3.3 mL • Target skin area: 0.55 cm^2 • Membrane type: Human skin having a thickness of 300 μm (acquired from New York Firefighter's Skin Bank, Science Care, Allosource, or BioIVT) • Number of skin donors: 1 individual • Details of donors: Gender: male or female; age: from 30 to 70 years old; site: thigh or upper torso • Receptor fluid: Phosphate buffered saline (PBS) containing 0.01% w/w NaN3 (preservative)
The concentrations of water-soluble agents were measured in the receptor chamber of the diffusion cell at different time points. At the end of the diffusion test, the skin was sequentially tape-stripped and divided into epidermal and dermal layers. Concentrates of various water-soluble agents in each of the grouped tape strips and epidermal and dermal tissues were extracted using an extraction solvent and analyzed on an Agilent G6120 HPLC system equipped with an LC-MS detector.
The obtained skin was cryopreserved in a freezer at −20° C. until the morning of the test. Before use, the skin was removed from the freezer and completely thawed at room temperature. Only visually intact areas of the skin were used during testing.
The receptor fluid was prepared at the appropriate pH and degassed by filtering the receptor fluid through a ZapCap (registered trademark) CR 0.2 μm membrane while vacuuming.
The diffusion cell was assembled according to (1) to (10) below. […]
Once the cell was assembled and the skin was hydrated for 20 minutes, a tritiated water test was performed to assess the barrier integrity of each skin piece before applying the test sample to the skin. Skin barrier integrity was evaluated according to (a) to (i) below. […]

As to `NCC(=O)NCC(=O)O` [glycylglycine] (H-Gly-Gly-OH), the Skin permeability result (dosage form of the second agent is an oil-in-water emulsion composition) is listed as “skin permeability is further improved”.
As for `NC(=O)c1cccnc1` [nicotinic acid amide, reference compound], the Skin permeability result (dosage form of the second agent is a water-in-oil emulsion composition) was “skin permeability is further improved”.
Consider `COc1ccc(C(=O)[O-])c(O)c1.[K+]` [potassium 4-methoxysalicylate], for which the “Distribution in the skin when it permeates the skin” value (from body-correcting-film forming agent, Table 1) is recorded as “tends to remain in the epidermis”.
